Experimental data from patent US20120065257A1, “USE OF BENZO-FUSED HETEROCYLE SULFAMIDE DERIVATIVES FOR THE TREATMENT OF MIGRAINE” (priority 2006, published 2012).
One block for each compound: values may come before it.

Experiments:
[1] = Body weight and systemic physiology monitoring during CSD testing; format: in vivo, Sprague-Dawley rats; settings: 100 mg/kg/day p.o. for 35 days
Protocol: Vehicle or Compound #8 was administered orally once a day for 35 days. On the last day of treatment, rats continued to receive food and water ad libitum, and were given their daily oral dose of vehicle or Compound #8 approximately 1.5 h prior to CSD testing. Rats were anesthetized using isoflurane and intubated via a tracheotomy for mechanical ventilation. Body temperature, blood pressure and heart rate were monitored throughout the procedure to ensure homeostasis. Rats were placed in a stereotaxic frame and three burr holes were drilled under saline cooling over the right hemisphere at the following coordinates (mm from bregma): (1) posterior 4.5, lateral 2.0 (occipital cortex): KCL application; (2) posterior 0.5, lateral 2.0 (parietal cortex): recording site 1; (3) anterior 2, lateral 2 (frontal cortex): recording site 2. Dura overlying the occipital cortex was gently removed. The steady (DC) potential and electrocorticogram (EcoG) were recorded with glass micropipettes filled with 200 mM NaCl, […] below the dural surface. An Ag/AgCl reference electrode was placed subcutaneously in the neck. Following surgical preparation, the cortex was allowed to recover for 30 minutes under saline irrigation. Cortical spreading depressions were initiated by placing a cotton ball soaked with 1M KCl on the pial surface. The number of KCL-induced CSDs was counted for 2 hours. Propagation speed was calculated from the distance (mm) between the recording electrodes 1 and 2, divided by the latency (min) between the CSDs recorded at these sites.

[2] = system: KCl-induced cortical spreading depression; assay: KCl-induced cortical spreading depression (CSD) assay as model of migraine; format: in vivo, Sprague-Dawley rats; settings: 100 mg/kg/day p.o. for 35 days
Protocol: Cortical spreading depression (CSD) has been implicated in migraine and as a headache trigger, and can be evoked in experimental animals by electrical or chemical stimulation (Kunkler & Kraig, 2003; Lauritzen et al., 1982; Moskowitz, 1984).
Adult male Sprague-Dawley rats (250-600 g) were divided into two treatment groups: vehicle (0.5% methylcellulose; n=13) and Compound #8 (100 mg/kg/day, p.o.; n=7). Results were compared to historical positive controls with valproic acid at 200 mg/kg/day, i.p.
Vehicle or Compound #8 was administered orally once a day for 35 days. On the last day of treatment, rats continued to receive food and water ad libitum, and were given their daily oral dose of vehicle or Compound #8 approximately 1.5 h prior to CSD testing. Rats were anesthetized using isoflurane and intubated via a tracheotomy for mechanical ventilation. Body temperature, blood pressure and heart rate were monitored throughout the procedure to ensure homeostasis. […] The steady (DC) potential and electrocorticogram (EcoG) were recorded with glass micropipettes filled with 200 mM NaCl, […] below the dural surface. […] The number of KCL-induced CSDs was counted for 2 hours. Propagation speed was calculated from the distance (mm) between the recording electrodes 1 and 2, divided by the latency (min) between the CSDs recorded at these sites. […]

[3] = system: KCl-induced cortical spreading depression; settings: historical positive control, 200 mg/kg/day i.p. for 4 weeks; saline 18; p<0.05; cited from earlier work

SMILES: NS(=O)(=O)NC[C@H]1COc2cc(Cl)ccc2O1 [Compound #8, (2S)-(−)-N-(6-Chloro-2,3-dihydro-benzo[1,4]dioxin-2-ylmethyl)-sulfamide]
Physiological monitoring, including arterial pH, pCO2, pO2 and blood pressure, versus vehicle [1]: did not differ between the groups
Systemic Physiology: pH (arterial) ([1]; vehicle 7.44 ± 0): 7.42 ± 0.03
Systemic Physiology: pCO2 ([1]; vehicle 38 ± 3, in mmHg (unit assumed)): 39 ± 3
Systemic Physiology: BP ([1]; vehicle 105 ± 14, in mmHg (unit assumed)): 107 ± 18
Systemic Physiology: pO2 ([1]; vehicle 162 ± 9, in mmHg (unit assumed)): 157 ± 18
Body weight ([1]; vehicle 401 ± 40): 418 ± 31 g
CSDs (2 h) ≧ 5 mV (number of KCl-induced cortical spreading depressions) ([2]; 1M KCl topical, counted for 2 hours, vehicle 16 ± 3, p=0.12, not significant): 14±3
Propagation Speed ([2]; vehicle 3.2 ± 1, p=0.06): 2.7±0.4 mm/min

SMILES: NS(=O)(=O)NC[C@H]1COc2cc(Cl)c(Cl)cc2O1 [Compound #29, (2S)-(−)-N-(6,7 Dichloro-2,3-dihydro-benzo[1,4]dioxin-2-ylmethyl)-sulfamide]
melting point: 119 to 121 °C

SMILES: CCCC(CCC)C(=O)O [valproate, valproic acid]
number of cortical spreading depressions [3]: 14

Other lines, results leading:

melting point: 76 to 78 °C
SMILES: CN(C)S(=O)(=O)NCC1COc2ccccc2O1 (racemic) [Compound #6, N-(2,3-Dihydro-benzo[1,4]dioxin-2-ylmethyl)-N′,N′ dimethylsulfamide]

melting point: 97 to 98 °C
SMILES: CN(CC1COc2ccccc2O1)S(N)(=O)=O (racemic) [Compound #7, N-(2,3-Dihydro-benzo[1,4]dioxin-2-ylmethyl)-N-methylsulfamide]

melting point: 100 to 101 °C
SMILES: NS(=O)(=O)NCC1CCc2ccccc2O1 (centres unmarked) [Compound #10, Chroman-2-ylmethylsulfamide]

melting point: 101 to 103 °C
SMILES: NS(=O)(=O)NCCC1COc2ccccc2O1 (centres unmarked) [Compound #16, 2-(2,3-Dihydro-benzo[1,4]dioxin-2-yl)-ethylsulfamide]
